Source: patent publication US20240082416A1, “AMATOXIN ANALOGS AND USES THEREOF” (THE UNIVERSITY OF BRITISH COLUMBIA, priority 2020, published 2024)
Values joined by “and” are separate entries in the source; they are usually repeats but may differ in a detail not shown here. Identical values can stand only once. Starred links: 1 amine or outer side, 2 acyl side, 3 side chain; linkers in the order of their positions; H or OH if unused. Positions of bridges follow the written chain, without caps; N, C: chain ends. Non-standard residues stand in square brackets, D forms with d. Residues, ends and D or L forms follow the SMILES beside them. X4 = CC(C)(C)OC(=O)/N=C(\N)N[C@@H]1C[C@@H](C(=O)[*:2])N([*:1])C1; Trp(2-yl) = O=C([C@H](Cc1c([*:3])[nH]c2ccccc12)N[*:1])[*:2]; Ile(4R-OH,5-OH) = C[C@H]([C@H](N)C(=O)O)[C@@H](O)CO; X3 = CC(=O)NCS[C@@H]1C[C@@H](C(=O)[*:2])N([*:1])C1

Key:
CHO cells = test: Viability assay against CHO cells (MTT colorimetric assay); format: cell-based, Chinese hamster; details: 72 h, replicates n = 1, 2, 3
Protocol: (§1) (f) Cell culture: Cells were cultured in Minimum Essential Medium Eagle—Alpha Modification (α-MEM) or […] Dulbecco's Modified Eagle Medium (DMEM), purchased from Gibco. […] All cell culture plastic ware was obtained from Coming or Falcon. Cells were cultured at 37° C. in a humidified chamber with 5% CO2. When used in cell culture, DMSO was purified by filtration through a […] filter. All experiments were carried out in a laminar flow culture cabinet, unless otherwise noted.
(§2) Immortalized CHO cells had been stored in liquid nitrogen. To revive cells, a 1-mL tube of the frozen cells in medium containing 10% DMSO was warmed in a 30° C. water bath and diluted with 9 mL of fresh media. Media contained 10% FBS and 100 U/mL penicillin and […] streptomycin, unless otherwise indicated. The cells were incubated in a T-25 flask at 37° C. at 5% CO2. After 24 hours, the medium was aspirated and replaced with fresh medium. When cells reached a level of 90-100% confluence, they were sub-cultured. […] Once the cells were detached from the tissue culture flask, 3-5 mL media was added to quench the trypsin and the mixture was transferred to a 10 mL centrifuge tube. The mixture was centrifuged for 5 min at […], and the supernatant was discarded. The cells were suspended in fresh medium, diluted as required, and transferred to a new culture flask.
(§3) To assay cell viability, a nearly confluent tissue culture flask was trypsinized, and the cells were counted following treatment with Trypan blue, using a hemocytometer. The cells were then diluted to the appropriate stock concentrations in fresh medium and transferred in 100 μL to a 96-well plate using a multi-channel pipette. The number of cells plated varied from experiment to experiment. These were incubated at 37° C. and 5% CO2 for a 24-hour period to allow for adherence. The medium was aspirated, and fresh medium was added, which contained the desired additives in DMSO. The cells were then re-incubated for 72 h. At the completion of the experiment, a 100 μL aliquot of 25 mg/mL MTT in phosphate-buffered saline (PBS) was added to each well. The plate was incubated three hours further to allow for the formation of the formazan product in viable cells. The media was carefully aspirated, and the purple product was solubilized in DMSO. […] Data was processed in Microsoft Excel and GraphPad Prism. Experiments were performed in triplicates unless otherwise noted, and the error bars were calculated as the standard error of the mean.
(§4) Each cell line was plated in a 96-well plate, with 100 μL of the stock solution per well (5000 cells per well) and incubated for 24 hours. […] The cells were incubated for 72 hours, at which point viability was assessed as described.

Pol II = target: T1, Pol II (Homo sapiens, UniProt P24928); test: In vitro transcription runoff assay using HeLaScribe nuclear extract; format: biochemical; details: for IC50: IC50 (nM), Table 12, n = 3, high values estimated from activity at [I]=1.0 μM
T1 construct: HeLaScribe® nuclear extract containing Pol II and all other transcription factors; purchased Promega; host or cells: HeLa nuclear extract (endogenous protein)
Source text: (h) In vitro transcription assay of synthetic amanitins containing analogs of Hyp: Primers were purchased from IDT via standard phosphoramidite chemistry. dNTP and rNTP were purchased from Thermofisher. GoTaq polymerase and HeLaScribe*Nuclear Extract in vitro Transcription System was purchased from Promega. Taq polymerase was purchased from NEB. [^32P] α-dGTP (3000 Ci/mmol 10 mCi/ml EasyTide) and [^32P] α-GTP (3000 Ci/mmol 10 mCi/ml EasyTide) were purchased from Perkin Elmer. QIAquick PCR purifcation kit was purchased from Qiagen. AcGFP1-N1 was a gift (Addgene plasmid #54705; http://n2t.net/addgene:54705; RRID:Addgene_54705). DNA Primer sequences were:
The DNA template for transcription runoff was synthesized by PCR with template pAcGFP-N1, and primers P1 and P2. To a final volume of 20 μL, 1 x GoTaq Buffer, 250 μM of each dNTP, 500 nM of each primers P1 and P2, […] pAcGFP-N1 and 0.05 U/μL GoTaq were employed to thermocycle for 30 cycles (30 s at 95° C., 30 s at 50° C. and 60 s at 72° C., Bio-Rad). A 1 μL aliquot of the amplified solution was resolved with 6×DNA loading dye in a 1% agarose gel containing […] and then visualized using GelDoc XR imager (Bio-Rad). Purification was completed via QIAquick PCR purification kit (Qiagen). The radioactive chromatographic standard was synthesized by PCR with template pAcGFP-N1, and primers P3 and P4. To a final volume of 50 μL, 1 x Thermopol Buffer, 200 μM of each dNTP, 500 nM of each primers P3 and P4, 10 pg/μL pAcGFP-N1 and 0.02 U/μL Vent polymerase, 1 μL [^32P] α-dGTP were employed to thermocycle for 30 cycles (30 s at 95° C., 30 s at 62° C. and 30 s at 72° C., Bio-Rad). A 1 μL aliquot of the amplified solution was resolved with 6×DNA loading dye in 8% denaturing PAGE and then visualized by autoradiography via the Typhoon 9200 imager (Molecular namics-Amersham-GE). Purification was completed via QIAquick PCR purification kit (Qiagen). The transcription runoff assay was modified from HeLaScribe® Nuclear Extract in vitro Transcription System (Promega). […]. The pellet was resolved by 8% denaturing PAGE and then visualized by autoradiography via the Typhoon 9200 imager (Molecular dynamics-Amersham-GE). Dosimetry was calculated by ImageJ, and the 3 parameter logistic fit was completed by Origin 2019 (OriginLab). […]
All data were presented in mean±standard deviation (n=3).

[1] = Viability assay against CHO cells (MTT colorimetric assay); format: cell-based, Chinese hamster; details: Chinese hamster, CHO cells, 72 h, replicates n = 1, 2, 3, read-out: % viable cells
Protocol: as §1, §2, §3, §4

## CC[C@H](C)[C@@H]1NC(=O)CNC(=O)[C@@H]2Cc3c([nH]c4ccccc34)SC[C@H](NC(=O)CNC1=O)C(=O)N[C@@H](CC(N)=O)C(=O)N1C[C@H](SCNC(C)=O)C[C@H]1C(=O)N[C@@H]([C@@H](C)[C@@H](O)CO)C(=O)N2 [Compound 8, SAcm-Pro-amanitin] (cyclo(CN[X3][Ile(4R-OH,5-OH)][Trp(2-yl)]GIG); thioether 1-5)
CHO cells; 1e-005 M, listed as SAcm-Pro-amanitin (8)
  % viable cells: 90% and 99%
CHO cells; 1.25e-006 M, listed as SAcm-Pro-amanitin (8)
  % viable cells: 85% and 92% and 106%
CHO cells; 1.56e-007 M, listed as SAcm-Pro-amanitin (8)
  % viable cells: 94% and 93% and 113%
CHO cells; 2e-005 M, listed as SAcm-Pro-amanitin (8)
  % viable cells: 110% and 105% and 99%
CHO cells; 2.5e-006 M, listed as SAcm-Pro-amanitin (8)
  % viable cells: 87% and 92% and 105%
CHO cells; 3.125e-007 M, listed as SAcm-Pro-amanitin (8)
  % viable cells: 88% and 93% and 110%
CHO cells; 5e-006 M, listed as SAcm-Pro-amanitin (8)
  % viable cells: 86% and 89%
CHO cells; 6.25e-007 M, listed as SAcm-Pro-amanitin (8)
  % viable cells: 93% and 90% and 108%
Pol II
  IC50: > 1000 nM

## CC[C@H](C)[C@@H]1NC(=O)CNC(=O)[C@@H]2Cc3c([nH]c4ccccc34)SC[C@H](NC(=O)CNC1=O)C(=O)N[C@@H](CC(N)=O)C(=O)N1C[C@H](N/C(N)=N/C(=O)OC(C)(C)C)C[C@H]1C(=O)N[C@@H]([C@@H](C)[C@@H](O)CO)C(=O)N2 [Compound 9, Boc-Gdn-Pro-amanitin] (cyclo(CN[X4][Ile(4R-OH,5-OH)][Trp(2-yl)]GIG); thioether 1-5)
CHO cells; 1e-005 M, listed as Boc-Gdn-Pro-amanitin (9)
  % viable cells: 103% and 98% and 119%
CHO cells; 1.25e-006 M, listed as Boc-Gdn-Pro-amanitin (9)
  % viable cells: 89% and 100%
CHO cells; 1.56e-007 M, listed as Boc-Gdn-Pro-amanitin (9)
  % viable cells: 97%
CHO cells; 2.5e-006 M, listed as Boc-Gdn-Pro-amanitin (9)
  % viable cells: 100%
CHO cells; 3.125e-007 M, listed as Boc-Gdn-Pro-amanitin (9)
  % viable cells: 82% and 90% and 103%
CHO cells; 3.9e-008 M, listed as Boc-Gdn-Pro-amanitin (9)
  % viable cells: 102%
CHO cells; 5e-006 M, listed as Boc-Gdn-Pro-amanitin (9)
  % viable cells: 104%
CHO cells; 6.25e-007 M, listed as Boc-Gdn-Pro-amanitin (9)
  % viable cells: 102%
CHO cells; 7.8e-008 M, listed as Boc-Gdn-Pro-amanitin (9)
  % viable cells: 101%
[1]; 1.25e-006 M
  viability at 72 h, 1.25e-06 M: 84%
[1]; 1.56e-007 M
  viability at 72 h, 1.56e-07 M: 87%
[1]; 2.5e-006 M
  viability at 72 h, 2.5e-06 M: 86%
[1]; 3.9e-008 M
  viability at 72 h, 3.9e-08 M: 88%
[1]; 5e-006 M
  viability at 72 h, 5e-06 M: 86%
[1]; 6.25e-007 M
  viability at 72 h, 6.25e-07 M: 84%
[1]; 7.8e-008 M
  viability at 72 h, 7.8e-08 M: 85%
Pol II
  IC50: > 600 nM
Pol II; up to 1 μM concentrations
  inhibitory effects: did not exhibit any noticeable inhibitory effects
